In ChEMBL document CHEMBL1130805, “The synthesis and evaluation of benzannelated-azatoxins: the benzazatoxins” (Bioorg Med Chem Lett, 1998) one finds GI50, IC50 and Activity data, which are given here for five compounds.

Active and inactive are the calls of the source. The calls are words filed in the database; no cut-off is given here. Some results are limits rather than exact numbers.

For assay [1], the system named is NCI-H520. The experiment in a line: Compound was evaluated for growth inhibition against NCI-H520 cells using cellular assay. It is filed as functional. Particulars: Homo sapiens.
In assay [2] the test system is MCF7. The experiment in a line: Compound was evaluated for growth inhibition against MCF-7 cells using cellular assay. It counts as functional. To be noted: Homo sapiens.
In assay [3] the test system is PC-3. As to the kind of experiment: Compound was evaluated for growth inhibition against PC-3 cells using cellular assay. It is filed as functional. Particulars: Homo sapiens.
The species named for assay [4] is Bos taurus. The experiment in a line: Compound was evaluated for inhibition of tubulin polymerization in bovine brain tubulin. It counts as functional.
For assay [5], the target named is T1, DNA topoisomerase II (Homo sapiens) (UniProt P11388+Q02880). The experiment in a line: Compound was evaluated for its ability to affect topoisomerase II inhibition; inactive. It counts as protein assay.
Assay [6] deals with T1, DNA topoisomerase II (Homo sapiens). The experiment in a line: Compound was evaluated for its ability to affect topoisomerase II inhibition; active. It is filed as protein assay.

Regarding `COc1cc([C@@H]2c3[nH]c4c(ccc5ccccc54)c3C[C@H]3COC(=O)N32)cc(OC)c1O`, the GI50 in assay [1], in assay [2] and in assay [3] was above 50 µM in each case. For the same compound, the IC50 (commonly the concentration that inhibits the measured activity by half) in assay [4] is 51 µM. In assay [5], the result was inactive.

On to `COc1cc2c(c(OC)c1OC)-c1ccc(OC)c(=O)cc1[C@@H](NC(C)=O)CC2` [COLCHICINE], for which the GI50 in assay [1], in assay [2] and in assay [3] was below 0.05 µM each time. This compound also yielded an IC50 in assay [4] of 11.8 µM. The result in assay [5] was inactive.

As to `COc1cc([C@@H]2c3[nH]c4ccccc4c3C[C@H]3COC(=O)N32)cc(OC)c1O`, the GI50 – broadly, the concentration at which growth is held to half of that of the control – in assay [1] is 0.12 µM; in assay [2] it was 0.25 µM; in assay [3], 0.2 µM. Moreover, the result in assay [6] was Active. The compound also showed an IC50 in assay [4] of 20.3 µM.

For the compound `COc1cc([C@@H]2c3[nH]c4cc5ccccc5cc4c3C[C@H]3COC(=O)N32)cc(OC)c1O`, the GI50 in assay [1] turned out to be 4 µM; in assay [2] it was 5 µM; in assay [3], 10 µM. The IC50 in assay [4] is 6.7 µM. Also, the outcome in assay [5] was inactive.

In the case of `COc1cc([C@@H]2c3[nH]c4ccc5ccccc5c4c3C[C@H]3COC(=O)N32)cc(OC)c1O`, the concentration for 50% growth inhibition (GI50) amounted to 0.8 µM in assay [1], 2 µM in assay [2] and 2 µM in assay [3]. In assay [4], this compound came in with an IC50 of 5.6 µM. The result in assay [5] was inactive.
